Measured values published in patent publication US8722673B2, “Imine compounds for combating invertebrate pests” (BASF SE, priority 2008, dated 2014).

Columns and labels:
Assay type in all cases: in vivo
[1] = tested on: Western Flower Thrips (Frankliniella occidentalis); assay: Western flower thrips glass vial and leaf disc test; details: 300 ppm; larvae or adults; 2 DAT
Method: Serial dilutions of each technical grade AI were made in pure acetone. 0.5 ml of the treatment solution was deposited into the bottom of a glass vial (scintillation vial). The cap was screwed back onto the vial and inverted for about five seconds. The cap was subsequently removed and the vial laid on its side and rolled constantly, on a hot dog roller, until all the acetone had flashed off and the inner surface of the vial was dry. Cotton leave discs were also dipped simultaneously into the treatment solutions and allowed to dry. After the vials were dried, the leave discs were placed into the vials to serve as a food/water source for the thrips. Each treatment was replicated 5-fold. Western flower thrips were aspirated into the vials, approximately 5 larvae or adults/vial. Following treatment application the vials were held in a holding room under fluorescent light and constant 26° C. Thrips mortality was assessed at 2 DAT (days after treatment), counting all thrips both dead and alive.

[2] = tested on: Acrobat Ant Workers (Crematogaster sp.); assay: Acrobat ant workers glass vial contact assay; details: 100 ppm; 48 h after treatment
Method: (§1) If not otherwise specified, the tests were conducted as glass vial contact assays. Glass vials (20 ml scintillation vials) were used. Treatment solutions were mixed with technical grade chemicals diluted in acetone. Treatment solutions needed for the assays included generally 1 and 10 ppm (0.01 and 0.1 μg/cm^2, respectively), but optionally also 100 and/or 1000 ppm for first tier vials. As commercial standard, alphacypermethrin was run at 1 ppm. As solvent control, acetone was used for the assay. Treatment solution was pipetted into the bottom of each vial. Each vial was turned on its side and placed onto a commercial grade hot dog roller without applying heat. The uncapped vials were allowed to roll to allow for the acetone treatment to vent off. After drying, the vials were placed into the compartmented vial shipping boxes. The workstation was prepared by chilling the table and plastic Petri dishes with the inside wall coated with Fluon. A weigh boat of 10% sugar water saturated cotton dental pellets was also prepared. The animal pests were collected into a tube with a rechargeable insect vacuum. The tube of animal pests was placed in a laboratory refrigerator until the animal pests were incapacitated. The animal pests were emptied into chilled Petri dish. A small cotton dental pellet was soaked in water or in 10 wt % sugar water, whereas the excess solution was gently squeezed out. […]

[3] = tested on: Brown Dog Tick Adults (Rhipicephalus sanguineus); assay: Brown dog tick adults glass vial contact assay; details: 100 ppm; 3 DAT (days after treatment)
Method: as §1, with “incapacitated.” for “incapacitated. The animal pests were emptied into chilled Petri dish. A small cotton dental pellet was soaked in water or in 10 wt % sugar water, whereas the excess solution was gently squeezed out.”
Treatment solutions were mixed with test compound diluted in acetone at concentrations of 10 and 100 ppm. […] Ticks were evaluated by rolling the vials on a preheated hotdog roller. […]

Measured: mortality in comparison with untreated controls

Cc1cc(C2=NOC(c3cc(Cl)cc(Cl)c3)(C(F)(F)F)C2)ccc1C=NNC(=O)NCC(F)(F)F (stereo not drawn) [Compound 1-48]
at least 75%: all assays above
